Experimental data: patent publication US20260265409A1, “ANTIBODY FUSION PROTEIN TARGETING FAP AND TGFbeta, AND USE THEREOF” (NANJING LEADS BIOLABS CO., LTD., priority 2022, published 2026)

Key:
[1] = target: T1, human FAP protein expressed on 293T cells (Homo sapiens, UniProt Q12884); test: Cell binding assay by flow cytometry, 293T-human FAP cells
T1 construct: expressed in transfected cells; host or cells: 293T cells, PIRES-puro3 vector, puromycin selection
T1 sequence (Q12884 1-760): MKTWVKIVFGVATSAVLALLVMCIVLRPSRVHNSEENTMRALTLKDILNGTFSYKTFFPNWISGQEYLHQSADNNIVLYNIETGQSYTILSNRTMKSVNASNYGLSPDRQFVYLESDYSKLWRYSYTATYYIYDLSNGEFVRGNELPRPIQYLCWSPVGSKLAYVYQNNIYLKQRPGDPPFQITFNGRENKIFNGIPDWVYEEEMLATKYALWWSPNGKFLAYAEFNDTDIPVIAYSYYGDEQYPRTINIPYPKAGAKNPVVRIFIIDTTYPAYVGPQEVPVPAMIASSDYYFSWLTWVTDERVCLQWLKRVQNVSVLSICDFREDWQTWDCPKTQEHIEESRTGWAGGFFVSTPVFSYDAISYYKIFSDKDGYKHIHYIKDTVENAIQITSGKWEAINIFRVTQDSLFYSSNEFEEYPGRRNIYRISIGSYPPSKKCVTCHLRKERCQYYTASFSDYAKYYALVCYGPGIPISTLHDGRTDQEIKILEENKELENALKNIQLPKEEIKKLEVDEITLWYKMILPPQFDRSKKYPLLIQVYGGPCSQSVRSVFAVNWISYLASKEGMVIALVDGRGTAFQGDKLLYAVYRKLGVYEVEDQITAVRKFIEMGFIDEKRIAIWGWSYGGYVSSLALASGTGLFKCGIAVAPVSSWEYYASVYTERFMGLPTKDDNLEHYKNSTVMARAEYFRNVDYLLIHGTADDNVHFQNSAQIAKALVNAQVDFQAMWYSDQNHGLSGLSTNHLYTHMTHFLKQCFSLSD
Protocol: Whether the humanized antibody of the present disclosure can bind to human FAP protein stably expressed on the surface of 293T cells was determined by a cell binding assay. Firstly, the sequences encoding human FAP protein (NM_004460.2, SEQ ID NO: 31) and cynomolgus FAP (XM_005573320.2, SEQ ID NO: 32) were cloned into expression vector PIRES-puro3 (Clontech, Cat #631619) […]. The vectors were used to transfect 293T cells. […]
The human FAP antibodies (huF19-LG and sibrotuzumab) were 4-fold serially diluted from a starting concentration of 200 nM to a total of 8 concentrations and added to the cells for co-incubation at 4° C. for 30 min. […] The cells were washed twice with PBS and then resuspended, and finally, fluorescence signals were detected using the […] (BD Bioscience) flow cytometer.
Whether the mutant antibody in the present disclosure can bind to human or cynomolgus FAP protein stably expressed on the surface of 293T cells was determined by a cell binding assay. […] The cells were washed twice with PBS and then resuspended, and finally, fluorescence signals were detected using the […] (BD Bioscience) flow cytometer. […]

[2] = system: bilateral idiopathic pulmonary fibrosis model; test: Bleomycin-induced idiopathic pulmonary fibrosis (IPF) model in mice; assay type: in vivo, C57BL/6 mice
Protocol: In this animal pharmacodynamic study, a bilateral idiopathic pulmonary fibrosis model was induced using bleomycin instillation into the trachea of mice supplied by KCl BioTech. The efficacy of the surrogate antibody fusion protein 28H1-Trap on pulmonary fibrosis was evaluated in this model. C57BL/6 mice (Cavens Biogle (Suzhou) Co., Ltd.) aged 8-9 weeks were treated from the day of modeling and the induced pulmonary fibrosis model was established by tracheal instillation of bleomycin after the treatment. In the next three weeks, intraperitoneal doses were given twice weekly, and the body weight was measured once every two days. The specific treatments and dosages are shown in the following table: Mice were euthanized at the end of study. At the end of study, both lungs were collected from 15 surviving animals in each group (6 in the normal group) and fixed by formalin perfusion. Histological sections were made, stained with Masson, imaged (FIGS. 7A-H), and graded by pulmonary fibrosis scores. Pathological staining results are shown in FIG. 7, where black arrows indicate intact alveolar structures and the dark interstitial parts indicate collagen accumulation.

[3] = system: renal interstitium fibrosis model induced by left ureter ligation; test: UUO renal interstitium fibrosis model in mice; assay type: in vivo, C57BL/6J mice; settings: 20 mg/kg and 3 mg/kg intraperitoneal every other day, day 10; FIG. 9, FIG. 10
Protocol: In this animal pharmacodynamic study, a renal interstitium fibrosis model was induced by left ureter ligation in mice supplied by KCl BioTech. The efficacy of the surrogate antibody fusion protein 28H1-Trap on renal fibrosis was evaluated in this model. C57BL/6J mice (Shanghai Jihui Laboratory Animal Care Co., Ltd.) aged 8-9 weeks were randomized by weight. On the day of modeling (day 0), the mice in groups 2-4 were anesthetized with isoflurane. The abdominal cavity was opened along the ventral midline, and the left ureter of the animal was ligated. The abdomen was closed and the skin was sutured. The treatment was given intraperitoneally on the day of modeling. The animals in group 1 were anesthetized with isoflurane. The abdominal cavity was opened along the ventral midline and closed immediately, and the skin was sutured. In the next 10 days, the treatments were given intraperitoneally once every other day, and the body weight was measured once every two days. The specific treatments and dosages are shown in the following table: The animals were given an I.P. injection of the test substance on days 0, 2, 4, 6, and 8, and the animals were given the analgesic meloxicam subcutaneously on days 1-3. The body weight was recorded daily. The kidney on the UUO side were scored for fibrosis by Masson staining. […] The degree of fibrosis of the kidney was evaluated (see FIG. 10).

**Q.** With “28H1-Trap: pharmacodynamic surrogate fusion protein: anti-FAP antibody 28H1 (WO2012020006) fused to TGFβR2 extracellular domain; heavy chain SEQ ID NO: 29, light chain SEQ ID NO: 28” as the substance, how does the “binding to human FAP protein expressed on engineered 293T cells (FACS)” value [1] read?
**A.** Its value is “confirmed to bind to human FAP at cellular level”.

**Q.** And the “pulmonary fibrosis grading (Ashcroft scoring)” value ([2]; 20 mg/kg and 3 mg/kg vs modeling group, FIG. 8B)?
**A.** The value was “reduced the pulmonary fibrotic lesions in a dose-dependent manner”.

**Q.** And the “grade of pulmonary fibrotic lesions (Masson staining, pathological sections)” value ([2]; 20 mg/kg intraperitoneal twice weekly, 21 days, vs modeling group, FIG. 7)?
**A.** Its value is “could reduce the grade of pulmonary fibrotic lesions”.

**Q.** And the “pulmonary fibrosis staining scoring” value ([2]; high dose (20 mg/kg) vs modeling group, FIG. 8A)?
**A.** The value was “can reduce fibrotic lesions in the lungs at a high dose”.

**Q.** And the “kidney fibrosis score by Masson staining” value [3]?
**A.** The value was “significant dose-dependent ameliorative effect on the fibrosis in the renal cortex of the kidney”.
